The values that follow come from patent publication US20060194837A1, “Tetrahydroisoquinoline compounds” (priority 2004, published 2006).

The Ki is a dissociation constant, usually derived from enzyme kinetics or from competition with a known ligand.

Molecules are shown by their SMILES. Like-named read-outs stand apart in the source and are kept apart here.

Experiment [1] deals with T1, Rat SERT (Rattus norvegicus, UniProt P31652).
T1 construct: A rat brain without cerebellum (Zivic Laboratories, Inc.—Pittsburgh, Pa.) was homogenized; tissue Zivic Laboratories, Inc; host or cells: rat brain without cerebellum, membranes
T1 sequence (P31652 whole entry): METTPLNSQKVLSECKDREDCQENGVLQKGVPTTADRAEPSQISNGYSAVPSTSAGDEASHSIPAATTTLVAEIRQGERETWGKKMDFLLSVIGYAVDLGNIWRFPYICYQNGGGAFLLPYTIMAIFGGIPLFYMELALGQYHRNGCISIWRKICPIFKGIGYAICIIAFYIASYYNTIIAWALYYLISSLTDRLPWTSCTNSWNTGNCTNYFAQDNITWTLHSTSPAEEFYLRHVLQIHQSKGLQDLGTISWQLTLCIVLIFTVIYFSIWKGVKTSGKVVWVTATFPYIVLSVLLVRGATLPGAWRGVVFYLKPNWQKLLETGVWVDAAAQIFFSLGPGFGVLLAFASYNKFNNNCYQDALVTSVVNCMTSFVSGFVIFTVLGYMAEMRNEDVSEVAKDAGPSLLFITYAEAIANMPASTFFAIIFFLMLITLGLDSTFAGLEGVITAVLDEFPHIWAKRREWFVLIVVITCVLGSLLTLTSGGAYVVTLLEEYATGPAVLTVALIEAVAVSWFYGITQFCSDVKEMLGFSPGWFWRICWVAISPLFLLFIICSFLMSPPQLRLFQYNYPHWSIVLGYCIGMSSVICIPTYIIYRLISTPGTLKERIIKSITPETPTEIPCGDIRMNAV
Nature of the experiment: Rat brain SERT binding ([3H]-citalopram displacement). To be noted: rat brain membranes without cerebellum, 0.6 nM [3H]-citalopram, 60 min at 25° C. Here is the method:
The supernatant was removed and re-centrifuged at 15,000 rpm for 30 min. […] Membranes were incubated with 0.6 nM [^3H]-Citalopram plus/minus test compounds for 60 min at 25° C. and harvested by rapid filtration over GF/C glass fiber filters (pretreated with 0.3% polyethylenimine) followed by four washes with ice-cold buffer.

Experiment [2] concerns the target T2, human H3 receptor (Homo sapiens, UniProt Q9Y5N1).
T2 construct: expressed in transfected cells
Nature of the experiment: Cyclic AMP accumulation (β-galactosidase reporter, Schild analysis). The format is cell-based. To be noted: histamine agonist, forskolin 5 μM, Schild regression of pEC50 values. Here is the method:
Sublines of SK-N-MC cells were created that expressed a reporter construct and the human H3 receptor. The reporter gene (β-galactosidase) is under the control of multiple cyclic AMP responsive elements. In 96-well plates, histamine was added directly to the cell media followed 5 min later by an addition of forskolin (5 μM final concentration). When appropriate, antagonists were added 10 min prior to agonist addition. After a 6-h incubation at 37° C., the media was aspirated and the cells washed with 200 μL of phosphate-buffered saline followed by a second aspiration. Cells were lysed with 25 μL 0.1× assay buffer (10 mM Na-phosphate, pH 8, 0.2 mM MgSO4, 0.01 mM MnCl2) and incubated at rt for 10 min. […] Color was developed using 25 μL of 1 mg/mL substrate solution (chlorophenolred β-D galactopyranoside; Roche Molecular Biochemicals, Indianapolis, In.).

In experiment [3] the target is T2, human H3 receptor. Kind of experiment: H3 receptor binding (N-[3H]-α-methylhistamine displacement). To be noted: membranes of SK-N-MC cells expressing cloned human H3 receptor, 0.8 nM N-[3H]-α-methylhistamine, 60 min at 25° C.
Experiment [4] addresses T3, human SERT (Homo sapiens, UniProt P31645).
T3 construct: expressed in transfected cells; host or cells: HEK293 membranes
Nature of the experiment: Human SERT binding (3H-citalopram displacement). To be noted: HEK293 membranes expressing human SERT, rt 1 h. The procedure:
Homogenized HEK293 (Human Embryonic Kidney) membranes expressing the human SERT were incubated with ^3H-citalopram (SERT) at rt for 1 h in 50 mM Tris, 120 mM NaCl, 5 mM KCl (pH 7.4). […] The membranes were washed and the radioactivity was counted as above.

The mark [5] stands for this setting: SK-N-MC cells expressing human H3 receptor and CRE-β-galactosidase reporter, read-out: pA2 (converted).
[6] abbreviates: pA2, SK-N-MC cells expressing human H3 receptor and CRE-β-galactosidase reporter.

T3 sequence (P31645 whole entry): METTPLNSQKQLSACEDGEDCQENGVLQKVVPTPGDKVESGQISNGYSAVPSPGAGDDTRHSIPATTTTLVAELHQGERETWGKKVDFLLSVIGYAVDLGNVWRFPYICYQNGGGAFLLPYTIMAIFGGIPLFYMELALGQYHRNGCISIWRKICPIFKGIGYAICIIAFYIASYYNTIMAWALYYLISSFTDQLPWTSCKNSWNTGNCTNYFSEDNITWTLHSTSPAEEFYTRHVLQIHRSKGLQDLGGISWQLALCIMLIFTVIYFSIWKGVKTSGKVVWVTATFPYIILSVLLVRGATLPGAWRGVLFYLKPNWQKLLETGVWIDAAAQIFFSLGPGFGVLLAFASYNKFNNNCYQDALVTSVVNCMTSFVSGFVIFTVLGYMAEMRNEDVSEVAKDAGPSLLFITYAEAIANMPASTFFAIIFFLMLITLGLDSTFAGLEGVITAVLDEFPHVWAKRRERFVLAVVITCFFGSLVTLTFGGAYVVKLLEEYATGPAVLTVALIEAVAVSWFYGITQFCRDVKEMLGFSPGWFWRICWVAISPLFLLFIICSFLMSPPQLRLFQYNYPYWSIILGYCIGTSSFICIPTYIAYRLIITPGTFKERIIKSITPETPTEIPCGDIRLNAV
T2 sequence (Q9Y5N1 whole entry): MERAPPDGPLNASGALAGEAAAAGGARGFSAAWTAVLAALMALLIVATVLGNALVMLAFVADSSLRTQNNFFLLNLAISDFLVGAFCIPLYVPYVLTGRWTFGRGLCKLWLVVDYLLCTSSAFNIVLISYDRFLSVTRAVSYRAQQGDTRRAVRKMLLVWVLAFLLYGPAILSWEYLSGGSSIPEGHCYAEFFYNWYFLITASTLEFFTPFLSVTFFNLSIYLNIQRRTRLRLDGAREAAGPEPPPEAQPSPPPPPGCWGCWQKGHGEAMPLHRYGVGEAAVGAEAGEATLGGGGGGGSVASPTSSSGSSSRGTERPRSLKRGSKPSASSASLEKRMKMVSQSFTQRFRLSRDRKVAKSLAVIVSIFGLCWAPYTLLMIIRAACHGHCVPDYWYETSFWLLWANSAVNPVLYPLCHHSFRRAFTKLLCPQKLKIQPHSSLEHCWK

Consider `COc1ccc(C2CN(C)Cc3cc(OCCCN4CCC(F)(F)CC4)ccc32)cc1` (stereo not drawn) [Example 8, 7-[3-(4,4-Difluoro-piperidin-1-yl)-propoxy]-4-(4-methoxy-phenyl)-2-methyl-1,2,3,4-tetrahydro-isoquinoline], for which the Ki was found to be 6 nM in experiment [1] (read-out: Rat SERT Ki), 4 nM in experiment [3] and 8 nM in experiment [4]. Besides, in experiment [2] (setting [5]), the Kb was 5.01 nM.
`c1cncc(C2CNCc3cc(CCCCN4CCCCC4)ccc32)c1` (stereo not drawn) [Example 272, 7-(4-Piperidin-1-yl-butyl)-4-pyridin-3-yl-1,2,3,4-tetrahydro-isoquinoline]: the inhibition constant Ki in experiment [1] (read-out: Rat SERT Ki) came out at 540 nM; in experiment [3], 3 nM; in experiment [4], 3000 nM. Moreover, the Kb in experiment [2] (setting [5]) was 3.16 nM.
Take `COc1cccc(C2CN(C)Cc3cc(OCCCN4CCC(F)CC4)ccc32)c1` (single isomer, unassigned) [Example 45A, 7-[3-(4-Fluoro-piperidin-1-yl)-propoxy]-4-(3-methoxyphenyl)-2-methyl-1,2,3,4-tetrahydro-isoquinoline]: the inhibition constant (Ki) in experiment [1] (read-out: Rat SERT Ki) was 9 nM; in experiment [3] it was 2 nM; in experiment [4], 7 nM. The Kb in experiment [2] (setting [5]) is 1.26 nM.
On to `CN1Cc2cc(OCCCN3CCCCC3)ccc2C(c2ccc(Cl)c(Cl)c2)C1` (stereo not drawn) [Example 76, 4-(3,4-Dichloro-phenyl)-2-methyl-7-(3-piperidin-1-yl-propoxy)-1,2,3,4-tetrahydro-isoquinoline], for which the inhibition constant Ki stood at 11 nM in experiment [1] (Rat SERT Ki (nM)), 5 nM in experiment [3] and 9 nM in experiment [4]. The Kb in experiment [2] (setting [6]) was 3.98 nM.
As for `COc1ccc(C2CN(C)Cc3cc(OCCCN4CCC(O)CC4)ccc32)cc1` (stereo not drawn) [Example 21, 1-{3-[4-(4-Methoxy-phenyl)-2-methyl-1,2,3,4-tetrahydro-isoquinolin-7-yloxy]-propyl}-piperidin-4-ol], the Ki in experiment [1] (read-out: Rat SERT Ki) is 2 nM; in experiment [3] it was 9 nM; in experiment [4], 4 nM. Besides, in experiment [2] (setting [5]), the Kb was 12.6 nM.
For the compound `COc1ccc(C2CN(C)Cc3cc(OCC4CCN(C(C)C)CC4)ccc32)cc1` (stereo not drawn) [Example 83, 7-(1-Isopropyl-piperidin-4-ylmethoxy)-4-(4-methoxy-phenyl)-2-methyl-1,2,3,4-tetrahydro-isoquinoline], the Ki was 6 nM in experiment [1] (read-out: Rat SERT Ki), 3 nM in experiment [3] and 5 nM in experiment [4]. In addition, the Kb in experiment [2] (setting [5]) is 1.26 nM.
For `COc1ccc(C2CN(C)Cc3cc(OCCCN4CCC(C#N)CC4)ccc32)cc1` (single isomer, unassigned) [Example 37B, 1-{3-[4-(4-Methoxy-phenyl)-2-methyl-1,2,3,4-tetrahydro-isoquinolin-7-yloxy]-propyl}-piperidine-4-carbonitrile], the Ki in experiment [1] (read-out: Rat SERT Ki) worked out at 4 nM; in experiment [3] it was 6 nM; in experiment [4] it was 6 nM. Moreover, the Kb in experiment [2] (setting [5]) was 5.01 nM.
Regarding `CN1Cc2cc(CCCCN3CCCCC3)ccc2C(c2cccnc2)C1` (stereo not drawn) [Example 273, 2-Methyl-7-(4-piperidin-1-yl-butyl)-4-pyridin-3-yl-1,2,3,4-tetrahydro-isoquinoline], the figures for the inhibitory constant (Ki) in experiment [1] (read-out: Rat SERT Ki), in experiment [3] and in experiment [4] were 47 nM, 5 nM and 158 nM, respectively. Besides, in experiment [2] (setting [5]), the Kb is 2 nM.
Regarding `CN1Cc2cc(OCCCN3CCOCC3)ccc2C(c2ccc(Cl)c(Cl)c2)C1` (stereo not drawn) [Example 77, 4-(3,4-Dichloro-phenyl)-2-methyl-7-(3-morpholin-4-yl-propoxy)-1,2,3,4-tetrahydro-isoquinoline], the Ki amounted to 27 nM in experiment [1] (read-out: Rat SERT Ki), 3 nM in experiment [3] and 28 nM in experiment [4]. Moreover, the Kb in experiment [2] (setting [6]) was 20 nM.
Regarding `CN1Cc2cc(OCCCN3CCCCC3)ccc2C(c2ccc(C(F)(F)F)cc2)C1` (stereo not drawn) [Example 60], the inhibitory constant (Ki) in experiment [1] (read-out: Rat SERT Ki) was 14 nM; in experiment [3], 2 nM; in experiment [4], 7 nM. In addition, the Kb in experiment [2] (setting [5]) is 2.51 nM.
`COc1cccc(C2CN(C)Cc3cc(OCCCN4CCC(F)CC4)ccc32)c1` (racemic) [Example 44, 7-[3-(4-Fluoro-piperidin-1-yl)-propoxy]-4-(3-methoxyphenyl)-2-methyl-1,2,3,4-tetrahydro-isoquinoline]: the Ki in experiment [1] (read-out: Rat SERT Ki) came to 4 nM; in experiment [3], 2 nM; in experiment [4], 7 nM. In experiment [2] (setting [5]), the Kb was 0.794 nM.
For the compound `COc1ccc(C2CN(C)Cc3cc(OCCCN4CCC(C#N)CC4)ccc32)cc1` (racemic) [Example 37, 1-{3-[4-(4-Methoxy-phenyl)-2-methyl-1,2,3,4-tetrahydro-isoquinolin-7-yloxy]-propyl}-piperidine-4-carbonitrile], the inhibition constant (Ki) in experiment [1] (read-out: Rat SERT Ki) was found to be 8 nM; in experiment [3], 9 nM; in experiment [4], 6 nM. For the same compound, the Kb in experiment [2] (setting [5]) was 6.31 nM.
On to `COc1ccc(C2CN(CCF)Cc3cc(OCCCN4CCCCC4)ccc32)cc1` (stereo not drawn) [Example 72, 2-(2-Fluoro-ethyl)-4-(4-methoxy-phenyl)-7-(3-piperidin-1-yl-propoxy)-1,2,3,4-tetrahydro-isoquinoline], for which the values for the Ki in experiment [1] (read-out: Rat SERT Ki), in experiment [3] and in experiment [4] were 15 nM, 1 nM and 29 nM, respectively. Also, in experiment [2] (setting [6]), the Kb is 0.794 nM.
Take `CN1Cc2cc(OCCCN3CCCCC3)ccc2C(c2ccsc2)C1` (stereo not drawn) [Example 57, 2-Methyl-7-(3-piperidin-1-yl-propoxy)-4-thiophen-3-yl-1,2,3,4-tetrahydro-isoquinoline]: the Ki came to 22 nM in experiment [1] (read-out: Rat SERT Ki), 0.9 nM in experiment [3] and 53 nM in experiment [4]. In experiment [2] (setting [5]), the Kb was 0.1 nM.
On to `CN1Cc2cc(OCCCN3CCCCC3)ccc2C(c2cccnc2)C1` (stereo not drawn) [Example 59, 2-Methyl-7-(3-piperidin-1-yl-propoxy)-4-pyridin-3-yl-1,2,3,4-tetrahydro-isoquinoline], for which the inhibition constant Ki in experiment [1] (read-out: Rat SERT Ki) was 48 nM; in experiment [3], 1 nM; in experiment [4], 160 nM. Moreover, the Kb in experiment [2] (setting [5]) was 0.126 nM.
